Measurements: PubChem BioAssay AID230 (DTP/NCI, 2004)
Values joined by “and” are separate entries in the source; they are usually repeats but may differ in a detail not shown here. Equal values may be shown once. Inconclusive results and toxic doses are left out.

System: C3H/He mice, Gardner lymphosarcoma 6C3HED ip, survival T/C
Assay: NCI In Vivo Anticancer Drug Screen. Data for tumor model Lymphosarcoma Gardner 6C3HED (intraperitoneal) in C3H/He mice
Details: vehicle: saline, higher = longer survival
Method: The antitumor activity of compounds was measured in mice bearing transplantable tumors. Survival or tumor size were measured and the results are expressed as the measurement made in the treated group (T) divided by the measurement made in the vehicle treated control group (C). The tumor model used in this assay is Lymphosarcoma Gardner 6C3HED (intraperitoneal) in C3H/He mice

[1] = endpoint: survival time, mean or median, dose: 5.0 mg/kg/injection, schedule: Q01DX010 (ip)
[2] = endpoint: survival time, mean or median, dose: 2.5 mg/kg/injection, schedule: Q01DX010 (ip)
[3] = endpoint: survival time, mean or median, dose: 10.0 mg/kg/injection, schedule: Q01DX010 (ip)
[4] = endpoint: survival time, mean or median, dose: 20.0 mg/kg/injection, schedule: Q01DX010 (ip)
[5] = endpoint: survival time, mean or median, dose: 40.0 mg/kg/injection, schedule: Q01DX010 (ip)
[6] = endpoint: survival time, mean or median, dose: 0.25 mg/kg/injection, schedule: Q01DX010 (ip)
[7] = endpoint: survival time, mean or median, dose: 62.5 mg/kg/injection, schedule: Q01DX010 (ip)
[8] = endpoint: survival time, mean or median, dose: 125.0 mg/kg/injection, schedule: Q01DX010 (ip)
[9] = endpoint: survival time, mean or median, dose: 250.0 mg/kg/injection, schedule: Q01DX010 (ip)
[10] = endpoint: survival time, mean or median, dose: 500.0 mg/kg/injection, schedule: Q01DX010 (ip)
[11] = endpoint: survival time, mean or median, dose: 0.13 mg/kg/injection, schedule: Q01DX010 (ip)
[12] = endpoint: survival time, mean or median, dose: 1.0 mg/kg/injection, schedule: Q01DX010 (ip)
[13] = endpoint: survival time, mean or median, dose: 2.0 mg/kg/injection, schedule: Q01DX010 (ip)

## NC(Cc1ccc(N(CCCl)CCCl)cc1)C(=O)O (stereo unspecified)
endpoint: survival time, mean or median, dose: 1.25 mg/kg/injection, schedule: Q01DX010 (ip)
  T/C: 107 % of control
[1]
  T/C: 89 % of control and 119 % of control

## N=C(N)SCc1c2ccccc2c(CSC(=N)N)c2ccccc12
[2]
  T/C: 300 % of control
[1]
  T/C: 300 % of control
[3]
  T/C: 300 % of control
[4]
  T/C: 300 % of control
[5]
  T/C: 192 % of control

## CN(C)/N=N/c1nc[nH]c1C(N)=O
endpoint: survival time, mean or median, dose: 25.0 mg/kg/injection, schedule: Q01DX010 (ip)
  T/C: 300 % of control
endpoint: survival time, mean or median, dose: 50.0 mg/kg/injection, schedule: Q01DX010 (ip)
  T/C: 300 % of control and 311 % of control
endpoint: survival time, mean or median, dose: 100.0 mg/kg/injection, schedule: Q01DX010 (ip)
  T/C: 266 % of control and 300 % of control
endpoint: survival time, mean or median, dose: 200.0 mg/kg/injection, schedule: Q01DX010 (ip)
  T/C: 118 % of control and 296 % of control

## CC(C)CC(NC(=O)C(O)C(N)Cc1ccccc1)C(=O)O (stereo unspecified)
endpoint: median survival time, dose: 2.5 mg/kg/injection, schedule: Q01DX005 (oral)
  T/C: 94 % of control
endpoint: median survival time, dose: 5.0 mg/kg/injection, schedule: Q01DX005 (oral)
  T/C: 95 % of control
endpoint: median survival time, dose: 10.0 mg/kg/injection, schedule: Q01DX005 (oral)
  T/C: 95 % of control

## CC1CCOS(=O)O1 (stereo unspecified)
[2]
  T/C: 93 % of control
[1]
  T/C: 93 % of control
[3]
  T/C: 92 % of control and 103 % of control
[4]
  T/C: 89 % of control and 96 % of control

## Nc1ncnc2c1ccn2C1OC(CO)C(O)C1O (stereo unspecified)
[6]
  T/C: 90 % of control

## c1ccc(CCSc2ncnc3nc[nH]c23)cc1
[7]
  T/C: 96 % of control
[8]
  T/C: 96 % of control and 100 % of control
[9]
  T/C: 93 % of control and 96 % of control
[10]
  T/C: 93 % of control and 96 % of control

## O=c1[nH]c(=O)n(C2CC(O)C(CO)O2)cc1F (stereo unspecified)
[1]
  T/C: 115 % of control and 303 % of control
[3]
  T/C: 100 % of control and 115 % of control
[4]
  T/C: 107 % of control and 229 % of control
[5]
  T/C: 115 % of control and 212 % of control

## CO[C@H](C(=O)[C@@H](O)[C@@H](C)O)[C@@H]1Cc2cc3cc(OC4CC(OC5CC(O)C(O)C(C)O5)C(O)C(C)O4)c(C)c(O)c3c(O)c2C(=O)[C@H]1OC1CC(OC2CC(OC3CC(C)(O)C(O)C(C)O3)C(O)C(C)O2)C(O)C(C)O1 (stereo partly specified)
[11]
  T/C: 111 % of control
[6]
  T/C: 123 % of control
[12]
  T/C: 300 % of control
[13]
  T/C: 188 % of control

## C[N+](C)(C)c1ncnc2nc[nH]c12
endpoint: survival time, mean or median, dose: 15.0 mg/kg/injection, schedule: Q01DX010 (ip)
  T/C: 92 % of control
endpoint: survival time, mean or median, dose: 30.0 mg/kg/injection, schedule: Q01DX010 (ip)
  T/C: 96 % of control

## COc1cc2c(c(OC)c1OC)-c1ccc(OC)c(=O)cc1[C@@H](NC(C)=O)CC2
endpoint: survival time, mean or median, dose: 0.01 mg/kg/injection, schedule: Q01DX010 (ip)
  T/C: 100 % of control
endpoint: survival time, mean or median, dose: 0.02 mg/kg/injection, schedule: Q01DX010 (ip)
  T/C: 103 % of control
endpoint: survival time, mean or median, dose: 0.04 mg/kg/injection, schedule: Q01DX010 (ip)
  T/C: 100 % of control
endpoint: survival time, mean or median, dose: 0.08 mg/kg/injection, schedule: Q01DX010 (ip)
  T/C: 121 % of control

## COc1cccc2c1C(=O)c1c(O)c3c(c(O)c1C2=O)C[C@@](O)(C(C)=O)C[C@@H]3OC1CC(N)C(O)C(C)O1 (stereo partly specified)
[11]
  T/C: 92 % of control
[6]
  T/C: 111 % of control
endpoint: survival time, mean or median, dose: 0.5 mg/kg/injection, schedule: Q01DX010 (ip)
  T/C: 119 % of control
[12]
  T/C: 300 % of control
[13]
  T/C: 173 % of control

## Cc1cn(C2OC(CO)C(O)C2O)c(=O)[nH]c1=O (stereo unspecified)
[7]
  T/C: 100 % of control
[8]
  T/C: 96 % of control and 100 % of control
[9]
  T/C: 100 % of control
[10]
  T/C: 103 % of control
